Data from US20250387425A1 (ANDA BIOLOGY MEDICINE DEVELOPMENT (SHENZHEN) CO., LTD., priority 2022, published 2025).

Tests used:
MX1 = experiment: Knock down of MX1 in PBMCs by siRNA, qPCR and tumor killing; assay type: cell-based, human; details: MX1 depletion by siRNA vs negative control oligonucleotides
Protocol: PBMCs were cultured in X-VIVO 15 medium (Lonza) supplemented with 10% Fetal Bovine Serum (Gemini), Penicillin-Streptomycin (Gibco), Antibiotic-Antimycotic (Gibco), 20 ng/ml recombinant human IL-7 (R&D), 50 U/ml recombinant human IL-2 (R&D) for one week. Then, TransIT-TKO kit (Mirus) was used to transient transfect MX1 siRNA into PBMCs. After 3 days of culture at 37° C., PBMCs were collected. A part of PBMCs co-incubated with tumor cells to test the killing effect of PBMCs after siRNA interference. The other part of PBMCs was extracted RNA with AllPrep DNA/RNA Kits (QIAGEN) and reverse transcription to cDNA with PrimeScript RT reagent Kit (Takara), and then used NovoStart SYBR qPCR SuperMix Plus (Novoprotein) performs qPCR to verify the efficiency of siRNA interference. The relative expressions of MX1 gene at the mRNA level was calculated by the 2-ΔΔCt method. GAPDH was used as a housekeeping gene.

[1] = test system: neoantigen-specific T-cell clones in blood; experiment: DNA-barcoded neoantigen-peptide-MHC tetramers with single-cell TCR sequencing (patient P6); assay type: cell-based, human; details: blood of patient P6

Substance	anti-tumor ability of immune cells in PBMC (MX1)	tetramer-positive T-cell clones (peptide-MHC HLA-A*11:01 tetramer) [1]
5′-GCTTTGTGAATTACAGGACAT-3′ (only one strand given, further chemistry not given here) [MX1 siRNA, siRNA transiently transfected into PBMCs to knock down MX1]	remarkably impaired	
YVECGKAFK [neoantigen-peptide-85-epitopel]		No tetramer-positive T-cell clones
